Assay results: BindingDB's records for doi:10.1016/j.bmcl.2019.02.034 (Wroclaw University of Technology, 2019)
Where a SMILES comes first, the peptide text is derived from it. The star is where a group is joined. X1 = CC(C)CC(CP(=O)(O)[C@@H](N)CCc1ccccc1)C(=O)*

The compounds below were run against Leucyl-cystinyl aminopeptidase (Homo sapiens) (UniProt Q9UIQ6) (assay: Inhibition of human IRAP using L-leucine 7-amido-4-methyl coumarin substrate by microplate fluorescence reader based assay).
Sequence of Leucyl-cystinyl aminopeptidase (Homo sapiens) (Q9UIQ6 whole entry, looked up): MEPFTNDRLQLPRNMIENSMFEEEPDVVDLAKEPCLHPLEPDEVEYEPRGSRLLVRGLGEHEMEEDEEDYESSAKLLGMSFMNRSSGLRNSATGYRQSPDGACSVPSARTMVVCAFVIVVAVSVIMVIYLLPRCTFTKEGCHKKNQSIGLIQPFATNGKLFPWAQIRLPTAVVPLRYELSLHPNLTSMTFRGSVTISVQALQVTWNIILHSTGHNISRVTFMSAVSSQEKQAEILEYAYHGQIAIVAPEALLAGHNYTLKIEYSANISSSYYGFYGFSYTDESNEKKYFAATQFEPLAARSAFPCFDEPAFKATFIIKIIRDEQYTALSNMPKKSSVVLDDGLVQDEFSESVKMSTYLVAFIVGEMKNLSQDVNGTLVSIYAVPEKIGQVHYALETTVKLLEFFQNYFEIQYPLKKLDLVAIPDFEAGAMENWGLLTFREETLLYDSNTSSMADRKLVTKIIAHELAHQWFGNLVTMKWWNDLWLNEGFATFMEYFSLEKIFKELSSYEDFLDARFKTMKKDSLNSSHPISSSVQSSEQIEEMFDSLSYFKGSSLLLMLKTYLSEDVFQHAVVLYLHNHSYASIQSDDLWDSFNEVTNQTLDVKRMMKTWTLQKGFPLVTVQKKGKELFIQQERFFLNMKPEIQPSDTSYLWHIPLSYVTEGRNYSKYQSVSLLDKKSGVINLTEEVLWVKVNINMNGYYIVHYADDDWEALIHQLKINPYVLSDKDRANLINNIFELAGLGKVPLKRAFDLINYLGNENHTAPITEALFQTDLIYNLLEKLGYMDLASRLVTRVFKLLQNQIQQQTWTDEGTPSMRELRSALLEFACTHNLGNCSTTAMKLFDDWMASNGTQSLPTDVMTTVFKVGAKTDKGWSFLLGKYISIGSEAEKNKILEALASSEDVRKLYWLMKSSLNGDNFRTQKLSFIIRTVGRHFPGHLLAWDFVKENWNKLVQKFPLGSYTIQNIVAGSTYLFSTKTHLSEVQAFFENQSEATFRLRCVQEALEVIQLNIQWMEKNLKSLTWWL

| IC50 [nM] | SMILES |
| --- | --- |
| 2 | C#CC[C@H](CP(=O)(O)[C@@H](N)CCc1ccccc1)C(=O)N[C@@H](Cc1ccccc1)C(N)=O |
| 32 | NC(=O)[C@H](Cc1ccccc1)NC(=O)[C@H](CCC(c1ccccc1)c1ccccc1)CP(=O)(O)[C@@H](N)CCc1ccccc1 |

| SMILES | IC50 [nM] |
| --- | --- |
| CC(C)CC(CP(=O)(O)[C@@H](N)CCc1ccccc1)C(=O)N[C@@H](CCCCN)C(=O)N[C@@H](Cc1cnc[nH]1)C(=O)N[C@@H](Cc1cnc[nH]1)C(=O)N[C@@H](C)C(=O)N[C@@H](Cc1ccccc1)C(=O)N[C@@H](CO)C(=O)N[C@@H](Cc1ccccc1)C(=O)N[C@@H](CCCCN)C(N)=O (stereo partly drawn) (X1-KHHAFSFK-NH2) | 7.7 |
